In patent publication US20070172423A1, “Composition and method for modulating vasculogenesis for angiogenesis” (priority 1998, published 2007):

Experiments:
[1] = molecular target: T1, human PDGF receptor alpha (Homo sapiens, UniProt P16234); assay: Competition with 125I-PDGF-BB for binding to PAE-1 cells expressing PDGF alpha-receptor; conditions: 5 ng/ml 125I-PDGF-BB tracer, on ice 90 minutes
T1 construct: expressed in transfected cells
Procedure: Next, full length and truncated PDGF-C were tested for their capacity to bind to human PDGF receptors alpha and beta by analyzing their abilities to compete with PDGF-BB for binding to PDGF receptors. The binding experiments were performed on porcine aortic endothelial-1 (PAE-1) cells stably expressing the human PDGF receptors alpha and beta (Eriksson et al., EMBO J, 1992, 11, 543-550). Binding experiments were performed essentially as in Heldin et al. (EMBO J, 1988, 7:1387-1393). Different concentrations of human full-length and truncated PDGF-C, or human PDGF-BB were mixed with 5 ng/ml of ^125I-PDGF-BB in binding buffer (PBS containing 1 mg/ml of bovine serum albumin). Aliquots were incubated with the receptor expressing PAE-1 cells plated in 24-well culture dishes on ice for 90 minutes. After three washes with binding buffer, cell-bound 125]-PDGF-BB was extracted by lysis of cells in 20 mM Tris-HCl, pH 7.5, 10% glycerol, 1% Triton X-100. The amount of cell bound radioactivity was determined in a gamma-counter. A standard curve for the binding of ^125I-labeled PDGF BB homodimers to PAE-1 cells expressing PDGF alpha-receptor is shown in FIG. 18.

[2] = test system: protease in AG1523 medium processing full-length PDGF-C; assay: Protease inhibitor analysis of PDGF-C processing by AG1523 medium; type: biochemical, human; conditions: AG1523 serum-free medium, 37° C. overnight, immunoblot
Procedure: To elucidate the mechanism of the proteolysis of PDGF-C a protease inhibitor analysis was conducted. Various protease inhibitors (see Table 1, source: Sigma) were pre-incubated with 0.9 ml of AG1523 serum-free medium at room temperature for 30 minutes, then incubated with 0.2 ml of recombinant full-length PDGF-C (Sf9 serum-free medium) at 37° C. overnight. TCA-precipitated proteins were subjected to SDS-page under reducing conditions and then immunoblotted. Recombinant PDGF-C was detected using an anti-His6 epitope monoclonal antibody (C-terminal) (InVitrogen).

aortic rings = assay: Aortic ring assay; type: cell-based; conditions: for number of sprouting microvessels: day 9 of culturing, versus control
Procedure: (§1) Cell migration assays were performed on growth arrested confluent HMVEC, BAEC or hSMC cells. Cell monolayers were wounded with a rubber policeman and washed with serum-free medium. Dishes were then incubated for 20 hours in serum-free medium containing VEGF165, PDGF-AA, (R&D Systems, Minneapolis USA) or PDGF-CC. Each assay included two dishes per condition and was repeated three times independently. Cells were photographed at 40× magnification, and migration percentage corresponding to the ratio between area of the cells and the total area of the wound (Biocom visiol@b 2000 version 4.52, San Diego). For HMVEC proliferation assay, cells were seeded in 96-well plates (5 wells per condition), and incubated with VEGF, PDGF-AA, or PDGF-CC (50 ng/ml) after serum starvation. After 7 days, viable cells were counted using the cell Titer-glo luminescent cell viability assay. For NIH-3T3 and hSMC proliferation assay, cells cultured in 96-well plates were serum-starved overnight, followed by treatment with growth factors at different concentrations. Two days later, cell numbers were counted and proliferation percentage calculated, using cells cultured in medium containing 10% serum as control. Aortic ring assay was performed as described 51. Briefly, one-millimeter long aortic rings were embedded in gels of rat tail interstitial collagen and cultured at 37° C., supplemented with different growth factors (50 ng/ml). Aortic rings were analysed at day 9 of culturing. Experiments included three explants per condition and were repeated at least twice. Aortic rings were photographed at 25× magnification.
Although PDGFR-α is expressed on endothelial cells (Edelberg et al., Journal of Clinical Investigation, 1998 102:837-43; Smits et al., Growth Factors, 1989 2:1-8; Bar et al., Endocrinology, 1989 124:1841-8; Beitz et al., Proc Natl Acad Sci USA, 1991 88:2021-5; Marx et al., J Clin Invest, 1994 93:131-9; Shinbrot et al., Dev. Dyn., 1994 199:169-175), little is known about the functional consequence of PDGFR-α signaling in these cells. […] We also tested the effect of PDGF-CC on cultured aortic rings, as this assay allows assessment of the outgrowth of microvessels from an intact vessel in vitro (Blacher et al., Angiogenesis, 2001 4:133-42). Results are graphically represented as the number of microvessels and the distance over which they grew out from the aortic ring. Each experiment included three explants per condition and was repeated at least twice. At day 9 after culturing, microvessels and the distance of their outgrowth were quantified and evaluated using Student's t test. In baseline conditions, only a small number of microvessels sprouted from the aortic rings—most of them over very short distances (0.25 mm from the aortic ring)—and only a small fraction (<5%) growing out over longer distances (>0.5 mm from the aortic ring, FIG. 41a). VEGF increased not only the number of sprouting microvessels (P<0.001 at all concentrations versus control), but also the distance over which they grew out (P<0.05 at all concentrations versus control; FIG. 41b,f). At 30 ng/ml, PDGF-CC increased the number of microvessels (P<0.001 versus control, FIG. 41e,g) and increased the distance of vessel outgrowth at 5 ng/ml (P<0.01 versus control, FIG. 41g). […] A similar bell-shaped dose-response relationship has been documented for other members of the VEGF/PDGF-superfamily (Jin et al., J Mol Neurosci, 2000 14:197-203). PDGF-AA, however, had no effect on the number of microvessels, although it increased the distance of vessel outgrowth at 5 ng/ml (P<0.01 versus control, FIG. 41h). Thus, PDGF-CC mobilized EC migration in cultured cells and promoted microvessel sprouting in the aortic ring assay.
The mitogenic and chemotactic effect of PDGF-CC was then tested on SMCs and perivascular fibroblast cells, and the effect of PDGF-CC was compared to that of VEGF and PDGF-AA in both cultured cells and the aortic ring assay (Blacher et al., Angiogenesis, 2001 4:133-42). […]

[3] = test system: human bone marrow-derived AC133+CD34+ cells; assay: Human bone marrow cell adherence and differentiation assay; type: cell-based; conditions: 50 ng/ml
Procedure: Enriched human BM derived AC133+CD34+ cells (Clonetics) at 10^5/ml were cultured for 3 days in HPGM (Clonetics) in a 6-well plate (Becton Dickinson). Cells were then seeded in collagen coated 12-well plates in EBM (Clonetics) medium containing 4% FCS and VEGF165 (R&D Systems) or PDGF-CC (50 ng/ml each). Growth factors were added every two days and media were refreshed at 75% every four days. For adherence assay, 2.5×10^4 of non-adherent cells/ml were cultured in the same condition on chamber slides coated with collagen, or in 96-well plate coated with 0.3% gelatin in PBS. Cells were then washed three times with PBS, fixed and stained with May-Grünwald Giemsa (Sigma) after two weeks of culture on chamber slides (Becton Dickinson). The number of viable cells was estimated by ATP quantification using cellTiter-glo luminescent cell viability assay (Promega) according to the manufacturer's instructions. For cell surface marker staining, cells (2×10^4/well) cultured on collagen-coated culture slides for two or four weeks were fixed (45 min, 25° C.) and permeabilized (45 min, 25° C.) using a Intrastain Kit (DAKO), and then labeled with CD31-FITC (Becton Dickinson), CD144-FITC (Pharmingen), CD34-FITC (Becton Dickinson) or SMC-Actin CY3 (Sigma). Single or double-labeled cells were analyzed using laser confocal immunofluorescence microscopy.
Upon stimulation by growth factors or cytokines, bone marrow stem/progenitor cells can differentiate into ECs and SMCs and thereby contribute to angio/arteriogenesis (Orlic et al., Nature, 2001 410:701-5; Kawamoto et al., Circulation, 2001 103:634-7; Asahara et al., Circ Res, 1999 85:221-8). The potential role of PDGF-CC in the differentiation of bone marrow progenitors into vascular cells has, however, not been investigated thus far. We therefore cultured human bone marrow-derived AC133^+CD34^+ cells—a population enriched for stem/progenitor cells (Miraglia et al., Blood, 1997 90:5013-21; Yu et al., J Biol Chem, 2002 277:20711-6; Donnelly et al., Leuk Lymphoma, 2001 40:221-34)—and stimulated them with PDGF-CC, using VEGF as a control (50 ng/ml each).

[4] = test system: human microvascular endothelial cells (HMVEC); assay: Cell migration assay, HMVEC; type: cell-based; conditions: wounded monolayer, 20 hours, serum-free medium
Procedure: as §1, with “Briefly, one-millimeter long aortic rings were embedded in gels of rat tail interstitial collagen and cultured at 37° C., supplemented with different growth factors (50 ng/ml).” left out, “Experiments included three explants per condition and were repeated at least twice. Aortic rings were photographed at 25× magnification.” left out

HMVEC = HMVEC proliferation assay; type: cell-based, human; conditions: 50 ng/ml, 7 days
Procedure: as §1, with “Briefly, one-millimeter long aortic rings were embedded in gels of rat tail interstitial collagen and cultured at 37° C., supplemented with different growth factors (50 ng/ml).” left out, “Experiments included three explants per condition and were repeated at least twice. Aortic rings were photographed at 25× magnification.” left out

hSMC [5] = assay: Cell migration assay, hSMC; type: cell-based, human; conditions: wounded monolayer, 20 hours
Procedure: Cell migration assays were performed on growth arrested confluent HMVEC, BAEC or hSMC cells. Cell monolayers were wounded with a rubber policeman and washed with serum-free medium. Dishes were then incubated for 20 hours in serum-free medium containing VEGF165, PDGF-AA, (R&D Systems, Minneapolis USA) or PDGF-CC. Each assay included two dishes per condition and was repeated three times independently. Cells were photographed at 40× magnification, and migration percentage corresponding to the ratio between area of the cells and the total area of the wound (Biocom visiol@b 2000 version 4.52, San Diego). […] After 7 days, viable cells were counted using the cell Titer-glo luminescent cell viability assay. […] Two days later, cell numbers were counted and proliferation percentage calculated, using cells cultured in medium containing 10% serum as control. […] Aortic rings were analysed at day 9 of culturing. […]
The mitogenic and chemotactic effect of PDGF-CC was then tested on SMCs and perivascular fibroblast cells, and the effect of PDGF-CC was compared to that of VEGF and PDGF-AA in both cultured cells and the aortic ring assay (Blacher et al., Angiogenesis, 2001 4:133-42). […] In the aortic ring assay, we quantified the growth and emigration of perivascular fibroblasts from the intact vessel using computer-assisted image analysis after treatment with VEGF and different PDGFs at different concentrations. […]

NIH-3T3 fibroblast cells = assay: NIH-3T3 proliferation assay; type: cell-based; conditions: two days, different concentrations
Procedure: as §1, with “Briefly, one-millimeter long aortic rings were embedded in gels of rat tail interstitial collagen and cultured at 37° C., supplemented with different growth factors (50 ng/ml).” left out, “Experiments included three explants per condition and were repeated at least twice. Aortic rings were photographed at 25× magnification.” left out

[6] = test system: bovine aorta endothelial cells (BAEC); assay: Cell migration assay, BAEC; type: cell-based; conditions: wounded monolayer, 20 hours, serum-free medium
Procedure: as §1, with “Briefly, one-millimeter long aortic rings were embedded in gels of rat tail interstitial collagen and cultured at 37° C., supplemented with different growth factors (50 ng/ml).” left out, “Experiments included three explants per condition and were repeated at least twice. Aortic rings were photographed at 25× magnification.” left out

hSMC [7] = assay: hSMC proliferation assay; type: cell-based, human; conditions: two days, different concentrations
Procedure: as §1, with “Briefly, one-millimeter long aortic rings were embedded in gels of rat tail interstitial collagen and cultured at 37° C., supplemented with different growth factors (50 ng/ml).” left out, “Experiments included three explants per condition and were repeated at least twice. Aortic rings were photographed at 25× magnification.” left out

T1 sequence (P16234 24-1089): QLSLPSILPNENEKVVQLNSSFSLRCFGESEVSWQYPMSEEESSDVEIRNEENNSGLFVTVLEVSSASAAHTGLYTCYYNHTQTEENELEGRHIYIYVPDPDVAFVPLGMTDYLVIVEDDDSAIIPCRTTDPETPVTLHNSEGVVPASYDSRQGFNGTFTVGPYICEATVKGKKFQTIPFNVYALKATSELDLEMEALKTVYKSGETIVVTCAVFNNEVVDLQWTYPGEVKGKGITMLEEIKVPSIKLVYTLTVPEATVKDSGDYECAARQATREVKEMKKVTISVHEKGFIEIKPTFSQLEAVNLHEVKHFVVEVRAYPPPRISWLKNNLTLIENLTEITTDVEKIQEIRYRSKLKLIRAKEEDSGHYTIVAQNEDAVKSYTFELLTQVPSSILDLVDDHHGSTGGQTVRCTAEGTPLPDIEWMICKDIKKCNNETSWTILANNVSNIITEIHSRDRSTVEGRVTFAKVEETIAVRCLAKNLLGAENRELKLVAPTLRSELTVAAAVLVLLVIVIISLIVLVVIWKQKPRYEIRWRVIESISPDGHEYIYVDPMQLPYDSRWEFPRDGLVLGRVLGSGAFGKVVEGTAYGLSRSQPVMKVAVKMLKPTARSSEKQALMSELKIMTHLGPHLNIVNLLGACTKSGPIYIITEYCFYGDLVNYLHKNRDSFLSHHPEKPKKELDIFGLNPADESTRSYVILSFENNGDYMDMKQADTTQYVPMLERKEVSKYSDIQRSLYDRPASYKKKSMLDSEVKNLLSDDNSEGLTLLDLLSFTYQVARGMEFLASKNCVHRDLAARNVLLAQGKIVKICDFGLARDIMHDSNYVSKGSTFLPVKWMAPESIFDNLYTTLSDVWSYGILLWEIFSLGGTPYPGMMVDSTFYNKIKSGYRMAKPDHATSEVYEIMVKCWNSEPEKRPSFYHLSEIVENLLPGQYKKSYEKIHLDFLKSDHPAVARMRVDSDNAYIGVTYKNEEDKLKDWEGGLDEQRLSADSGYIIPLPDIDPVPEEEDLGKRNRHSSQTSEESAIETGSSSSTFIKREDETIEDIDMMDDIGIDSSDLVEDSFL

PDGF-BB: human PDGF B-chain homodimer, unlabeled competitor and 125I tracer [reference compound]
competition for binding to the PDGF alpha-receptor [1]: competed efficiently

Aprotinin
inhibition of proteolytic processing of full-length PDGF-C [2]: capacity to inhibit

VEGF
distance over which microvessels grew out (aortic rings; all concentrations, day 9, versus control): increased
number and emigration of perivascular fibroblast-like cells (aortic rings; day 9, versus control): in effective
number of sprouting microvessels (aortic rings): increased
SMA expression ([3]; four weeks): remained SMA negative
expression of CD144 and CD31 ([3]; four weeks): still CD144 and CD31 positive
adherence of AC133+CD34+ cells ([3]; two weeks of stimulation): enhanced
expression of EC surface markers CD144 (VE-cadherin) and CD31 (PECAM) ([3]; two weeks of stimulation): induced
expression of smooth muscle cell marker SMA ([3]; two weeks of stimulation): did not become SMA positive
migration of HMVECs [4]: stimulated
EC proliferation (HMVEC): highly stimulated
hSMC migration (hSMC [5]): no effect

PDGF-AA: PDGF A-chain homodimer (R&D Systems), PDGFR-α ligand used as control
distance of vessel outgrowth (aortic rings; 5 ng/ml, day 9, versus control): increased
number and emigration of perivascular fibroblast-like cells (aortic rings; day 9, versus control): intermediate effect
number of sprouting microvessels (aortic rings): no effect
proliferation of cultured NIH-3T3 fibroblast cells (NIH-3T3 fibroblast cells): stimulated
migration of BAEC [6]: no effect
EC proliferation (HMVEC): no effect
hSMC migration (hSMC [5]): stimulated
proliferation of cultured hSMC cells (hSMC [7]): stimulated
